# Measurements: PubChem BioAssay (NCI)
#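 In this assay, cells in 96-well plates receive the compound at five concentrations for 48 hours. Endpoints are linearly interpolated between the surrounding concentrations. GI50 marks 50% less growth. At the TGI there is no net growth.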
# Columns and labels:
# Experiment in all cases: NCI tumour cell line growth inhibition, 48 h
# [1] = tested on: UACC-257 melanoma
# [2] = tested on: DU-145 prostate
# [3] = tested on: SK-MEL-2 melanoma
# [4] = tested on: OVCAR-8 ovarian
# [5] = tested on: SN12C renal
# [6] = tested on: MDA-MB-435
# [7] = tested on: NCI-H460 lung
# [8] = tested on: A549 NSCLC
# [9] = tested on: SF-268 CNS
# [10] = tested on: NCI/ADR-RES ovarian
# [11] = tested on: OVCAR-3 ovarian
# [12] = tested on: SF-295 CNS
# [13] = tested on: RPMI-8226 leukemia
# [14] = tested on: MOLT-4 leukemia
# [15] = tested on: OVCAR-4 ovarian
# [16] = tested on: SW-620 colon
# [17] = tested on: MCF7 breast
# [18] = tested on: LOX IMVI melanoma
# [19] = tested on: HCT-15 colon
# [20] = tested on: CCRF-CEM leukemia
# [21] = tested on: SNB-19 CNS
# [22] = tested on: NCI-H226 lung
# [23] = tested on: T-47D breast
# [24] = tested on: NCI-H522 lung
# [25] = tested on: OVCAR-5 ovarian
# [26] = tested on: HCC-2998 colon
# [27] = tested on: UACC-62 melanoma
# [28] = tested on: HOP-92 NSCLC
smiles,measurement,setting,value
COc1cc(SC)ccc1C(=O)N1CCCC(C)C1 (stereo unspecified),GI50,[1],78.9 µM
same,TGI,[1],> 100 µM
same,GI50,[2],> 100 µM
same,TGI,[2],> 100 µM
same,GI50,[3],> 100 µM
same,TGI,[3],> 100 µM
same,GI50,[4],> 100 µM
same,TGI,[4],> 100 µM
same,GI50,[5],> 100 µM
same,TGI,[5],> 100 µM
same,GI50,[6],> 100 µM
same,TGI,[6],> 100 µM
same,GI50,[7],> 100 µM
same,TGI,[7],> 100 µM
same,GI50,[8],> 100 µM
same,TGI,[8],> 100 µM
same,GI50,[9],> 100 µM
same,TGI,[9],> 100 µM
same,GI50,[10],70.6 µM
same,TGI,[10],> 100 µM
same,GI50,[11],> 100 µM
same,TGI,[11],> 100 µM
same,GI50,[12],> 100 µM
same,TGI,[12],> 100 µM
same,GI50,[13],69.2 µM
same,TGI,[13],> 100 µM
same,GI50,[14],77.7 µM
same,TGI,[14],> 100 µM
same,GI50,[15],58.6 µM
same,TGI,[15],> 100 µM
same,GI50,[16],> 100 µM
same,TGI,[16],> 100 µM
same,GI50,[17],79 µM
same,TGI,[17],> 100 µM
same,GI50,[18],> 100 µM
same,TGI,[18],> 100 µM
same,GI50,[19],> 100 µM
same,TGI,[19],> 100 µM
same,GI50,[20],> 100 µM
same,TGI,[20],> 100 µM
same,GI50,[21],> 100 µM
same,TGI,[21],> 100 µM
same,GI50,[22],80.4 µM
same,TGI,[22],> 100 µM
same,GI50,[23],> 100 µM
same,TGI,[23],> 100 µM
same,GI50,[24],> 100 µM
same,TGI,[24],> 100 µM
same,GI50,[25],> 100 µM
same,TGI,[25],> 100 µM
same,GI50,[26],> 100 µM
same,TGI,[26],> 100 µM
same,GI50,[27],> 100 µM
same,TGI,[27],> 100 µM
same,GI50,[28],95.7 µM
same,TGI,[28],> 100 µM
